# Source: publication PMC8746695, “Zinc-Chelating Compounds as Inhibitors of Human and Bacterial Zinc Metalloproteases” (Molecules, 2021)
# Columns and labels:
# [1] = in solution; read-out: Kd for zinc; cited from earlier work
# MMP-14 = molecular target: T1, MMP-14 (Homo sapiens, UniProt P50281); experiment: Time-dependent slow, reversible/irreversible binding of TPA to MMP-14 (pre-incubation and micro-dialysis); type: biochemical; conditions: for vi/v0 MMP-14: 100 μM TPA
# T1 construct: human MT1-MMP/MMP-14 (catalytic domain); purchased Calbiochem (San Diego, CA, USA)
# Protocol: We tested if TPA is a time-dependent irreversible or reversible inhibitor of MMP-14. In these experiments, two different concentrations of MMP-14 (45 and 5.6 nM) were pre-incubated up to 48 min at 37 °C with 10.0 and 11.1 μM of TPA, respectively, as described in Materials and Methods. As controls, the same amount of MMP-14 (without TPA but with the same concentration of DMSO) was identically pre-incubated at 37 °C. […] In the presence of 100 μM TPA, vi/v0 was 0.61 after 2 min and 0.03 after 11 min pre-incubation at 37 °C. To determine whether the observed time-dependent inhibition was due to reversible or irreversible inhibition, a solution of 45 nM MMP-14 was first pre-incubated for approximately 40 min at 37 °C with 10 μM TPA (1% DMSO in assay buffer, pH 7.5). As a control, MMP-14 (without TPA but with the same concentration of DMSO) was also pre-incubated for approximately 40 min at 37 °C. […]
# In pre-incubation tests with high concentration of MMP-14, 90 μL 50 nM MMP-14 was mixed with 9.0 μL 110 μM TPA (dissolved in 0.1 M Hepes pH 7.5 containing 10 mM CaCl2, 0.005% Brij-35 and 10% DMSO) and incubated at 37 °C for up to 48 min. […] At different time points, 10 μL of the enzyme (with and without TPA) was added to 90 μL of 0.1 M Hepes pH 7.5 containing 10 mM CaCl2, 0.005% Brij-35 and 11.1 μM ES001 and the initial rate reaction velocity (v) was determined as described in Section 3.4. using a Perkin Elmer LS 50 Luminescence spectrometer. […]
# In pre-incubation tests with a low concentration of MMP-14, 60 μL 50 nM MMP-14 was mixed with 420 μL 0.1 M Hepes pH 7.5 (containing 10 mM CaCl2, 0.005% Brij-35) and 60 μL of either 0.1 M Hepes pH 7.5 containing 10 mM CaCl2, 0.005% Brij-35 and 10% DMSO (control) or 60 μL 100 μM TPA (dissolved in 0.1 M Hepes pH 7.5 containing 10 mM CaCl2, 0.005% Brij-35 and 10% DMSO). At different time points, 90 μL of the enzyme (with and without TPA) was mixed with 10 μL 100 μM ES001 and the initial rate of the reaction was determined as described above. […]
smiles,measurement,setting,value
"c1ccc(CN(Cc2ccccn2)Cc2ccccn2)nc1 [TPA, tri(2-pyridinemethyl)amine, reference compound]",Kd,[1],~0.01 nM
same,vi/v0 MMP-14,MMP-14; 2 min pre-incubation at 37 °C,0.61
same,vi/v0 MMP-14,MMP-14; 11 min pre-incubation at 37 °C,0.03
same,type of inhibition of MMP-14,"MMP-14; pre-incubation 37 °C, micro-dialysis 4 °C","slow, reversible inhibitor"
